Data reported in paper PMC9959518, “Influence of the Drug Position on Bioactivity in Angiopep-2—Daunomycin Conjugates” (International Journal of Molecular Sciences, 2023).

How the values were obtained:
[1] = Degradation in rat liver lysosomal homogenate followed by HPLC-MS; format: in vitro ADME; details: pH 5.03, 37 °C
Method: The conjugates were treated with lysosomal homogenate for 5 min, 1 h, 6 h, 24 h, and 72 h, and the degradation was followed by HPLC-MS. Control studies investigating conjugates in buffer (without lysosomal homogenate) were also performed, and for these, all conjugates were stable. […] At 6 h, it was the main drug-containing metabolite, and at 72 h, only this Dau-containing fragment could be detected. This time-dependent pattern was also observed in the case of conjugate 2, where Dau was attached to the side chain of Lys in position 15, and the formed smallest metabolite was H-Lys(Dau=Aoa)-OH. […] It is likely that, in this case, a large steric hindrance occurred, and the enzymes were not able to access the peptide bonds around ^10Lys. This observation might explain the discrepancy between the efficient cellular uptake and the lower anticancer activity of this conjugate.
A stock solution with a concentration of 2.5 μg/μL was prepared from the conjugates in distilled water, and this was diluted 100× with 0.2 M sodium acetate buffer (pH 5.03). The rat liver lysosomal homogenate (16.6 μg/μL) was diluted 20× with the same buffer, and then the two solutions were mixed in a 1:1 (protein:peptide, m/m) ratio. In each case, control measurements were also performed, in which buffer was added to the conjugates instead of the lysosomal homogenate. The solutions were stirred at 600 rpm at 37 °C in a thermostat (ThermoMixer, Eppendorf AG, Hamburg, Germany), and after 5 min, 1 h, 6 h, 24 h, and 72 h, 50 μL samples were taken. Each reaction was quenched with 5 μL formic acid and the samples were stored frozen until analysis.
The HPLC-MS analysis of the samples was performed with a Dionex 3000 HPLC-Q Exactive Focus hybrid quadrupole-orbitrap mass spectrometer (Thermo Fisher Scientific, Bremen, Germany). For separation, a Supelco Ascentis C18 column (3 μm, 100 Å, 150 × 2.1 mm; Merck, Darmstadt, Germany) and gradient elution (0 min 2% B, 1 min 2% B, 17 min 90% B; A eluent: 0.1% formic acid/distilled water, eluent B: 0.1% formic acid/acetonitrile + distilled water (80:20, v/v%), flow rate 0.2 mL/min, 40 °C) was used, and high-resolution mass spectra were recorded in the range of 200–1800 m/z. The data were analyzed using the Xcalibur program (Thermo Fisher Scientific).

[2] = tested on: U87 human glioblastoma cells; format: cell-based; details: MTT test; for IC50: 0.05–50 µM, treated 24 h (method: overnight), washed, further 48 h (method: 72 h) at 37 °C, two independent experiments with four parallel measurements
Method: The in vitro cytostatic effect of the synthesized peptide (1) and daunomycin-peptide conjugates (2–8) was investigated on U87 human glioblastoma cells. The cells were treated with the peptide and conjugates at different concentrations (0.05–50 μM) for 24 h, and after a washing step, the cells were incubated for another […] at 37 °C. The cytostatic effect of the compounds was determined using the MTT test.
U87 human glioblastoma cell line was cultured in DMEM supplemented with 10% FBS, 2 mM L-glutamine, penicillin–streptomycin antibiotic mixture (50 IU/mL and 50 μg/mL, respectively), 1 mM sodium pyruvate, and 1% non-essential amino acid mixture. The cell culture was maintained at 37 °C in a humidified atmosphere with 5% CO2. The U87 cell line was a generous gift of Dr. József Tóvári (Department of Experimental Pharmacology, National Institute of Oncology, Budapest, Hungary).
For determining the cytostatic effect of the conjugates, U87 cells were grown to confluency and then divided into 96-well tissue culture plates with an initial cell number of 5.0 × 10^3 cells/well. After 24 h incubation at 37 °C, the cells were treated with the compounds overnight in the concentration range of 0.05–50 μM in 200 μL final volume containing 1.0 v/v% DMSO, whereas control cells were treated only with serum-free medium or with 1.0 v/v% DMSO at the same conditions. After the incubation, cells were washed twice with serum-free medium, then the cells were cultured for an additional 72 h in 10% serum-containing medium at 37 °C. Following that, MTT solution (at c = 0.37 mg/mL final concentration) was added to each well. The respiratory chain [32] and other electron transport systems reduced MTT and thereby formed non-water-soluble violet formazan crystals within the cells. The amount of these crystals can be determined by spectrophotometry and serves as an estimate for the number of mitochondria in addition to the number of living cells in the well [35]. After 3 h of incubation with MTT, the cells were centrifuged for 5 min at 2000 rpm and the supernatant was removed. The obtained formazan crystals were dissolved in DMSO (100 µL), and the optical density (OD) of the samples was measured at λ = 540 nm and 620 nm, respectively, using ELISA Reader (iEMS Reader, Labsystems, Finland). The OD620 values were subtracted from the OD540 values. The percent of cytostasis was calculated with the following equation:(1) Cytostatic effect (%)=1−ODtreated/ODcontrol×100 where the ODtreated and ODcontrol values correspond to the optical densities of the treated and the control wells, respectively. In each case, two independent experiments were carried out with four parallel measurements. Cytostasis was plotted as a function of concentration, and the half-maximal inhibitory concentration was calculated based on a sigmoid curve fitted on the data points using Microcal™ Origin 2018 software. IC50 represents the concentration of a compound that is required for 50% inhibition, expressed in micromolar units.

In the case of `COc1cccc2c1C(=O)c1c(O)c3c(c(O)c1C2=O)C[C@@](O)(C(C)=NOCC(=O)N[C@H](C(=O)N[C@@H](C)C(=O)NCCCC[C@H](NC(=O)CNC(=O)[C@H](CCCNC(=N)N)NC(=O)[C@H](CO)NC(=O)CNC(=O)CNC(=O)[C@H](Cc1ccc(O)cc1)NC(=O)[C@H](Cc1ccccc1)NC(=O)[C@H](Cc1ccccc1)NC(=O)[C@@H](N)[C@@H](C)O)C(=O)N[C@@H](CCCNC(=N)N)C(=O)N[C@@H](CC(N)=O)C(=O)N[C@@H](CC(N)=O)C(=O)N[C@@H](Cc1ccccc1)C(=O)N[C@@H](CCCCN)C(=O)N[C@H](C(=O)N[C@@H](CCC(=O)O)C(=O)N[C@@H](CCC(=O)O)C(=O)N[C@@H](Cc1ccc(O)cc1)C(=O)O)[C@@H](C)O)C(C)C)C[C@@H]3O[C@H]1C[C@H](N)[C@H](O)[C@H](C)O1` [compound 10, H-TFFYGGSRGK(Dau=Aoa-VA)RNNFKTEEY-OH], the “amount of H-K(Dau=Aoa-VA)-OH formed” value [1] is reported as “very small amounts”, the “amount of expected metabolite Dau=Aoa-Val-OH produced after 72 h” value ([1]; 72 h) is reported as “negligible amounts” and the IC50 [2] is reported as over 50 µM.
For `COc1cccc2c1C(=O)c1c(O)c3c(c(O)c1C2=O)C[C@@](O)(C(C)=NOCC(=O)NCCCC[C@H](NC(=O)[C@H](Cc1ccccc1)NC(=O)[C@H](CC(N)=O)NC(=O)[C@H](CC(N)=O)NC(=O)[C@H](CCCNC(=N)N)NC(=O)[C@H](CCCCN)NC(=O)CNC(=O)[C@H](CCCNC(=N)N)NC(=O)[C@H](CO)NC(=O)CNC(=O)CNC(=O)[C@H](Cc1ccc(O)cc1)NC(=O)[C@H](Cc1ccccc1)NC(=O)[C@H](Cc1ccccc1)NC(=O)[C@@H](NC(=O)CON=C(C)[C@]1(O)Cc2c(O)c4c(c(O)c2[C@@H](O[C@H]2C[C@H](N)[C@H](O)[C@H](C)O2)C1)C(=O)c1c(OC)cccc1C4=O)[C@@H](C)O)C(=O)N[C@H](C(=O)N[C@@H](CCC(=O)O)C(=O)N[C@@H](CCC(=O)O)C(=O)N[C@@H](Cc1ccc(O)cc1)C(=O)O)[C@@H](C)O)C[C@@H]3O[C@H]1C[C@H](N)[C@H](O)[C@H](C)O1` [compound 5, Dau=Aoa-TFFYGGSRGKRNNFK(Dau=Aoa)TEEY-OH], the IC50 [2] was 32.3 ± 8.1 µM.
Compound `COc1cccc2c1C(=O)c1c(O)c3c(c(O)c1C2=O)C[C@@](O)(C(C)=NOCC(=O)NCCCC[C@H](NC(=O)CNC(=O)[C@H](CCCNC(=N)N)NC(=O)[C@H](CO)NC(=O)CNC(=O)CNC(=O)[C@H](Cc1ccc(O)cc1)NC(=O)[C@H](Cc1ccccc1)NC(=O)[C@H](Cc1ccccc1)NC(=O)[C@@H](NC(=O)CON=C(C)[C@]1(O)Cc2c(O)c4c(c(O)c2[C@@H](O[C@H]2C[C@H](N)[C@H](O)[C@H](C)O2)C1)C(=O)c1c(OC)cccc1C4=O)[C@@H](C)O)C(=O)N[C@@H](CCCNC(=N)N)C(=O)N[C@@H](CC(N)=O)C(=O)N[C@@H](CC(N)=O)C(=O)N[C@@H](Cc1ccccc1)C(=O)N[C@@H](CCCCNC(=O)CON=C(C)[C@]1(O)Cc2c(O)c4c(c(O)c2[C@@H](O[C@H]2C[C@H](N)[C@H](O)[C@H](C)O2)C1)C(=O)c1c(OC)cccc1C4=O)C(=O)N[C@H](C(=O)N[C@@H](CCC(=O)O)C(=O)N[C@@H](CCC(=O)O)C(=O)N[C@@H](Cc1ccc(O)cc1)C(=O)O)[C@@H](C)O)C[C@@H]3O[C@H]1C[C@H](N)[C@H](O)[C@H](C)O1` [compound 8, Dau=Aoa-TFFYGGSRGK(Dau=Aoa)RNNFK(Dau=Aoa)TEEY-OH] has an IC50 [2] of 23.6 ± 6.3 µM.
With `COc1cccc2c1C(=O)c1c(O)c3c(c(O)c1C2=O)C[C@@](O)(C(C)=NOCC(=O)NCCCC[C@H](NC(=O)[C@H](Cc1ccccc1)NC(=O)[C@H](CC(N)=O)NC(=O)[C@H](CC(N)=O)NC(=O)[C@H](CCCNC(=N)N)NC(=O)[C@H](CCCCN)NC(=O)CNC(=O)[C@H](CCCNC(=N)N)NC(=O)[C@H](CO)NC(=O)CNC(=O)CNC(=O)[C@H](Cc1ccc(O)cc1)NC(=O)[C@H](Cc1ccccc1)NC(=O)[C@H](Cc1ccccc1)NC(=O)[C@@H](N)[C@@H](C)O)C(=O)N[C@H](C(=O)N[C@@H](CCC(=O)O)C(=O)N[C@@H](CCC(=O)O)C(=O)N[C@@H](Cc1ccc(O)cc1)C(=O)O)[C@@H](C)O)C[C@@H]3O[C@H]1C[C@H](N)[C@H](O)[C@H](C)O1` [compound 2, H-TFFYGGSRGKRNNFK(Dau=Aoa)TEEY-OH] the IC50 [2] was 30.2 ± 6.4 µM.
With `COc1cccc2c1C(=O)c1c(O)c3c(c(O)c1C2=O)C[C@@](O)(C(C)=NOCC(=O)N[C@H](C(=O)N[C@@H](C)C(=O)NCC(=O)NCC(=O)NCCCC[C@H](NC(=O)CNC(=O)[C@H](CCCNC(=N)N)NC(=O)[C@H](CO)NC(=O)CNC(=O)CNC(=O)[C@H](Cc1ccc(O)cc1)NC(=O)[C@H](Cc1ccccc1)NC(=O)[C@H](Cc1ccccc1)NC(=O)[C@@H](N)[C@@H](C)O)C(=O)N[C@@H](CCCNC(=N)N)C(=O)N[C@@H](CC(N)=O)C(=O)N[C@@H](CC(N)=O)C(=O)N[C@@H](Cc1ccccc1)C(=O)N[C@@H](CCCCN)C(=O)N[C@H](C(=O)N[C@@H](CCC(=O)O)C(=O)N[C@@H](CCC(=O)O)C(=O)N[C@@H](Cc1ccc(O)cc1)C(=O)O)[C@@H](C)O)C(C)C)C[C@@H]3O[C@H]1C[C@H](N)[C@H](O)[C@H](C)O1` [compound 11, H-TFFYGGSRGK(Dau=Aoa-VAGG)RNNFKTEEY-OH] the “time of appearance of the Dau=Aoa-Val-Ala-OH fragment” value [1] was 1 h, the “amount of Dau=Aoa-Val-OH detected after 6 h” value ([1]; 6 h) was “high amounts” and the IC50 [2] was 20.2 ± 3 µM.
For `COc1cccc2c1C(=O)c1c(O)c3c(c(O)c1C2=O)C[C@@](O)(C(C)=NOCC(=O)NCCCC[C@H](NC(=O)CNC(=O)[C@H](CCCNC(=N)N)NC(=O)[C@H](CO)NC(=O)CNC(=O)CNC(=O)[C@H](Cc1ccc(O)cc1)NC(=O)[C@H](Cc1ccccc1)NC(=O)[C@H](Cc1ccccc1)NC(=O)[C@@H](N)[C@@H](C)O)C(=O)N[C@@H](CCCNC(=N)N)C(=O)N[C@@H](CC(N)=O)C(=O)N[C@@H](CC(N)=O)C(=O)N[C@@H](Cc1ccccc1)C(=O)N[C@@H](CCCCNC(=O)CON=C(C)[C@]1(O)Cc2c(O)c4c(c(O)c2[C@@H](O[C@H]2C[C@H](N)[C@H](O)[C@H](C)O2)C1)C(=O)c1c(OC)cccc1C4=O)C(=O)N[C@H](C(=O)N[C@@H](CCC(=O)O)C(=O)N[C@@H](CCC(=O)O)C(=O)N[C@@H](Cc1ccc(O)cc1)C(=O)O)[C@@H](C)O)C[C@@H]3O[C@H]1C[C@H](N)[C@H](O)[C@H](C)O1` [compound 6, H-TFFYGGSRGK(Dau=Aoa)RNNFK(Dau=Aoa)TEEY-OH], the IC50 [2] was 21.6 ± 5.4 µM.
For `C[C@@H](O)[C@H](N)C(=O)N[C@@H](Cc1ccccc1)C(=O)N[C@@H](Cc1ccccc1)C(=O)N[C@@H](Cc1ccc(O)cc1)C(=O)NCC(=O)NCC(=O)N[C@@H](CO)C(=O)N[C@@H](CCCNC(=N)N)C(=O)NCC(=O)N[C@@H](CCCCN)C(=O)N[C@@H](CCCNC(=N)N)C(=O)N[C@@H](CC(N)=O)C(=O)N[C@@H](CC(N)=O)C(=O)N[C@@H](Cc1ccccc1)C(=O)N[C@@H](CCCCN)C(=O)N[C@H](C(=O)N[C@@H](CCC(=O)O)C(=O)N[C@@H](CCC(=O)O)C(=O)N[C@@H](Cc1ccc(O)cc1)C(=O)O)[C@@H](C)O` [compound 1, H-TFFYGGSRGKRNNFKTEEY-OH, reference compound], the IC50 [2] was over 50 µM and the “in vitro cytostatic effect (in words)” value ([2]; up to 50 µM) was “did not show any effect”.
